Source: patent US20030040436A1 (priority 2000, published 2003)

What was measured:
[1] = system: moss; experiment: Control of moss on greenhouse wall and ground; settings: 5% (w/v), sprayed to run-off, one application, within 24 hours
[2] = system: SRI 020 bentgrass or Tiffway hybrid bermudagrass; experiment: Field test, spray application: toxicity to the grass; type: in vivo, SRI 020 bentgrass; Tiffway hybrid bermudagrass; settings: all concentrations tested (0.8, 0.3, 0.1% w/v), single spray application
Text: (§1) Each of the three concentrations and negative controls without benzyl benzoate were applied to one square foot of SRI 020 bentgrass or Tiffway hybrid bermudagrass, which was naturally infected with Phormidiumalgae, with a single spray application. The turfgrass was examined empirically for control of the algae as well and toxicity to the grass.

[3] = system: Phormidium algae; experiment: Well-plate assay of algicidal activity; settings: for Lethality: 24 hours under fluorescent light
Description: Liquid cultures of Phormidiumalgae were homogenized into individual cells in a standard laboratory blender apparatus. One hundred fifty μl of the homogenized algal suspension were added to the wells of 96-well assay plates using multitip-transfer pipettes. To each well, 150 μl of various dilutions of the test formulation were added, such that final concentrations of bcnzyl benzoate in the test wells were 0.8%, 0.3%, and 0.1%. The plates were allowed to incubation under fluorescent light for 24 hours.

[4] = system: Phormidium algae; experiment: Filter paper assay of algicidal activity; type: cell-based; settings: for Zone of Inhibition: observed 4 days after start
Text: Briefly, the filter paper assay is designed to approximate an environment such as that found on a golf course, where algal pests can be particularly damaging. Blended fragment suspensions of Phormidium algae were passed through a coarse Whatman filter paper circle to collect the algal cells. The filter paper was then placed in a large Petri dish containing moist sand. The desired concentration of 10% benzyl benzoate formulation (0.8, 0.3 and 0.1% (w/v) final concentration) was placed on marked areas of the algae field to determine toxic effects. Observations were made 4 days after the test was initiated and were compared to control experiments using the known pesticide Daconil.

[5] = system: Tiffway hybrid bermudagrass and SR1020 bentgrass; experiment: Phytotoxic field testing on grass test surfaces; type: in vivo; settings: highest concentration (0.8% w/v), one square foot test surfaces
Text: This formulation was applied to two grass species, Tiffway hybrid bermudagrass and SR1020 bentgrass. One square foot test surfaces of each grass type were used. The test formulation was applied to test surfaces in dilutions corresponding to 0.8, 0.3, and 0.1% (w/v) benzyl benzoate.

[6] = system: Phormidium algae; experiment: Field test, spray application: control of algae on turfgrass; type: in vivo; settings: single spray application, several days following
Text: as §1

## CCCCCCC(C=O)=Cc1ccccc1 [HCA, α-hexyl cinnamic aldehyde, reference compound]
[1]
  phytotoxicity to moss: phytotoxic to moss

## O=C(OCc1ccccc1)c1ccccc1 [benzyl benzoate]
[2]
  phytotoxic effect (chemical burn) on the two grass species: minimal phytotoxic effect
[3]; 0.1% benzyl benzoate
  Comments (efficacy compared to Daconil): Same efficacy as
[3]; 0.1% benzyl benzoate final concentration
  Lethality: no
[3]; 0.3% benzyl benzoate
  Comments (efficacy compared to Daconil): Superior to Daconil
[3]; 0.3% benzyl benzoate final concentration
  Lethality: yes
[3]; 0.8% benzyl benzoate
  Comments (efficacy compared to Daconil): Superior to Daconil
[3]; 0.8% benzyl benzoate final concentration
  Lethality: yes
[4]; 0.1% (w/v) benzyl benzoate
  Zone of Inhibition: no
[4]; 0.3% (w/v) benzyl benzoate
  killing Phormidium: very effective
  Zone of Inhibition: yes
[4]; 0.8% (w/v) benzyl benzoate
  killing Phormidium: very effective
  Zone of Inhibition: yes
[5]
  phytotoxicity: Only small signs of phytotoxicity
[6]; 0.3% (w/v)
  algae control: significant level of control
[6]; 0.8% (w/v)
  algae control: most effective algae control

## O=C(OCc1ccccc1)c1ccccc1O [benzyl salicylate]
[1]
  phytotoxicity to moss: phytotoxic to moss
